Marks after values point to notes of the source that are not given here.
Assay: 4-week repeat-dose toxicology study in rats with 2-week recovery (Study 20000328)
[1] = 125 mg/kg M, end of dosing, animals affected
[2] = 125 mg/kg M, end of dosing, animals of 10
[3] = 125 mg/kg M, end of recovery, animals of 5
[4] = 250 mg/kg F, end of dosing, animals of 10

For `COC1=C(OC)C(=O)C(C/C=C(\C)CC/C=C(\C)CC/C=C(\C)CC/C=C(\C)CC/C=C(\C)CC/C=C(\C)CC/C=C(\C)CC/C=C(\C)CC/C=C(\C)CCC=C(C)C)=C(C)C1=O` [CoQ10, Coenzyme Q10], the Erythrocytes (125 mg/kg M, end of dosing) was 7.59* 10^6/cmm, the “Food Consumption, percent difference from controls” value (125 mg/kg M, end of dosing) was −9.2* % and the GGT (125 mg/kg M, end of dosing) was 0.09 IU/L. For the same compound, the Hematocrit (125 mg/kg M, end of dosing) was 41.6* %, the Hemoglobin (125 mg/kg M, end of dosing) was 14.3 g/dL and the Leukocytes (125 mg/kg M, end of dosing) was 11.03 10^3/cmm. The “Liver weight (absolute), percent difference from controls” value (125 mg/kg M, end of dosing) was −7.2%, the Lymphocytes (125 mg/kg M, end of dosing) was 8.70* 10^3/cmm and the Neutrophils (125 mg/kg M, end of dosing) was 1.71 10^3/cmm. The “Spleen weight (absolute), percent difference from controls” value (125 mg/kg M, end of dosing) was −23.4%, the “Injection Site Mononuclear Cell Infiltration” value [1] was 1 and the “Injection Site Mononuclear Cell Infiltration, Marked” value [1] was 1. For the same compound, the “Injection Site Mononuclear Cell Infiltration, Mild” value [1] was 0, the “Injection Site Mononuclear Cell Infiltration, Minimal” value [1] was 0 and the “Injection Site Mononuclear Cell Infiltration, Moderate” value [1] was 0. The “Bone Marrow, Sternum Hyperplasia” value [2] was 2, the “Bone Marrow, Sternum Hyperplasia, Mild” value [2] was 0 and the “Bone Marrow, Sternum Hyperplasia, Minimal” value [2] was 2. For the same compound, the “Gross Pathology: Enlarged Pancreatic Lymph Nodes” value [2] was 1, the “Gross Pathology: Pale Adrenal” value [2] was 0 and the “Gross Pathology: Pale Liver” value [2] was 9. For the same compound, the “Gross Pathology: Pale Lymph Nodes” value [2] was 4, the “Gross Pathology: Pale Pituitary” value [2] was 0 and the “Gross Pathology: Pale SQ Skin” value [2] was 1. The “Liver Focal Necrosis” value [2] was 0, the “Liver Focal Necrosis, Minimal” value [2] was 0 and the “Liver Histiocytic Infiltration” value [2] was 6. For the same compound, the “Liver Histiocytic Infiltration, Mild” value [2] was 3, the “Liver Histiocytic Infiltration, Minimal” value [2] was 3 and the “Liver Histiocytic Infiltration, Moderate” value [2] was 0. The “Liver Vacuolation” value [2] was 8, the “Liver Vacuolation, Mild” value [2] was 4 and the “Liver Vacuolation, Minimal” value [2] was 4. For the same compound, the “Lymph Node, Man. Histiocytic Infiltration” value [2] was 7, the “Lymph Node, Man. Histiocytic Infiltration, Mild” value [2] was 4 and the “Lymph Node, Man. Histiocytic Infiltration, Minimal” value [2] was 3. For the same compound, the “Lymph Node, Man. Histiocytic Infiltration, Moderate” value [2] was 0, the “Lymph Node, Mes. Histiocytic Infiltration” value [2] was 10 and the “Lymph Node, Mes. Histiocytic Infiltration, Mild” value [2] was 6. For the same compound, the “Lymph Node, Mes. Histiocytic Infiltration, Minimal” value [2] was 4, the “Lymph Node, Mes. Histiocytic Infiltration, Moderate” value [2] was 0 and the “Skin, Dermis Histiocytic Infiltration” value [2] was 1. The “Skin, Dermis Histiocytic Infiltration, Marked” value [2] was 1, the “Skin, Dermis Histiocytic Infiltration, Mild” value [2] was 0 and the “Skin, Dermis Histiocytic Infiltration, Moderate” value [2] was 0. For the same compound, the “Skin, SQ Histiocytic Infiltration” value [2] was 0, the “Skin, SQ Histiocytic Infiltration, Mild” value [2] was 0 and the “Spleen Histiocytic Infiltration” value [2] was 8. For the same compound, the “Spleen Histiocytic Infiltration, Marked” value [2] was 0, the “Spleen Histiocytic Infiltration, Mild” value [2] was 5 and the “Spleen Histiocytic Infiltration, Moderate” value [2] was 3. For the same compound, the ALT (125 mg/kg M, end of recovery) was 27 IU/L, the APPT (125 mg/kg M, end of recovery) was 15.9* seconds and the AST (125 mg/kg M, end of recovery) was 94 IU/L. For the same compound, the “Body Weight, percent difference from controls” value (125 mg/kg M, end of recovery) was −2.2%, the “Food Consumption, percent difference from controls” value (125 mg/kg M, end of recovery) was “+1.2%” and the GGT (125 mg/kg M, end of recovery) was 0.00 IU/L. The “Liver weight (absolute), percent difference from controls” value (125 mg/kg M, end of recovery) was −2.5%, the “Spleen weight (absolute), percent difference from controls” value (125 mg/kg M, end of recovery) was “+5.9%” and the “Adrenal Gland Vacuolation” value [3] was 5. For the same compound, the “Adrenal Gland Vacuolation, Marked” value [3] was 0, the “Adrenal Gland Vacuolation, Mild” value [3] was 2 and the “Adrenal Gland Vacuolation, Minimal” value [3] was 0. For the same compound, the “Adrenal Gland Vacuolation, Moderate” value [3] was 3, the “Gross Pathology: Enlarged Spleen” value [3] was 1 and the “Gross Pathology: Pale Iliac Lymph Node” value [3] was 2. The “Gross Pathology: Pale Liver” value [3] was 5, the “Gross Pathology: Pale Pancreatic Lymph Node” value [3] was 2 and the “Liver Focal Necrosis” value [3] was 3. The “Liver Focal Necrosis, Mild” value [3] was 1, the “Liver Focal Necrosis, Minimal” value [3] was 2 and the “Liver Histiocytic Infiltration” value [3] was 5. For the same compound, the “Liver Histiocytic Infiltration, Mild” value [3] was 1, the “Liver Histiocytic Infiltration, Minimal” value [3] was 4 and the “Liver Histiocytic Infiltration, Moderate” value [3] was 0. The “Liver Multifocal Necrosis” value [3] was 0, the “Liver Multifocal Necrosis, Mild” value [3] was 0 and the “Liver Multifocal Necrosis, Moderate” value [3] was 0. The “Liver Vacuolation” value [3] was 5, the “Liver Vacuolation, Mild” value [3] was 4 and the “Liver Vacuolation, Minimal” value [3] was 1. The “Liver Vacuolation, Moderate” value [3] was 0, the “Lymph Node, Man. Histiocytic Infiltration” value [3] was 5 and the “Lymph Node, Man. Histiocytic Infiltration, Mild” value [3] was 2. The “Lymph Node, Man. Histiocytic Infiltration, Minimal” value [3] was 3, the “Lymph Node, Man. Histiocytic Infiltration, Moderate” value [3] was 0 and the “Lymph Node, Mes. Histiocytic Infiltration” value [3] was 5. The “Lymph Node, Mes. Histiocytic Infiltration, Mild” value [3] was 1, the “Lymph Node, Mes. Histiocytic Infiltration, Minimal” value [3] was 3 and the “Spleen Histiocytic Infiltration” value [3] was 3. The “Spleen Histiocytic Infiltration, Marked” value [3] was 0, the “Spleen Histiocytic Infiltration, Mild” value [3] was 1 and the “Spleen Histiocytic Infiltration, Minimal” value [3] was 2. The “Spleen Histiocytic Infiltration, Moderate” value [3] was 0, the “Died or Sacrificed Moribund” value (250 mg/kg F, animals of 15) was 0 and the ALT (250 mg/kg F, end of dosing) was 22 IU/L. The APPT (250 mg/kg F, end of dosing) was 14.5* seconds, the AST (250 mg/kg F, end of dosing) was 88 IU/L and the “Body Weight, percent difference from controls” value (250 mg/kg F, end of dosing) was −8.9* %. The Eosinophils (250 mg/kg F, end of dosing) was 0.10 10^3/cmm, the Erythrocytes (250 mg/kg F, end of dosing) was 6.12 10^6/cmm and the “Food Consumption, percent difference from controls” value (250 mg/kg F, end of dosing) was −18.3* %. For the same compound, the GGT (250 mg/kg F, end of dosing) was 0.25 IU/L, the Hematocrit (250 mg/kg F, end of dosing) was 39.2* % and the Hemoglobin (250 mg/kg F, end of dosing) was 13.2 g/dL. For the same compound, the Leukocytes (250 mg/kg F, end of dosing) was 13.15* 10^3/cmm, the “Liver weight (absolute), percent difference from controls” value (250 mg/kg F, end of dosing) was “+14.5* %” and the Lymphocytes (250 mg/kg F, end of dosing) was 10.50* 10^3/cmm. The Neutrophils (250 mg/kg F, end of dosing) was 1.97* 10^3/cmm, the “Spleen weight (absolute), percent difference from controls” value (250 mg/kg F, end of dosing) was “+51.0* %” and the “Adrenal Gland Vacuolation” value [4] was 10. For the same compound, the “Adrenal Gland Vacuolation, Mild” value [4] was 3, the “Adrenal Gland Vacuolation, Minimal” value [4] was 0 and the “Adrenal Gland Vacuolation, Moderate” value [4] was 7. For the same compound, the “Bone Marrow, Sternum Hyperplasia” value [4] was 0, the “Bone Marrow, Sternum Hyperplasia, Mild” value [4] was 0 and the “Bone Marrow, Sternum Hyperplasia, Minimal” value [4] was 0. For the same compound, the “Gross Pathology: Enlarged Pancreatic Lymph Nodes” value [4] was 1, the “Gross Pathology: Pale Adrenal” value [4] was 2 and the “Gross Pathology: Pale Liver” value [4] was 10. The “Gross Pathology: Pale Lymph Nodes” value [4] was 7, the “Gross Pathology: Pale Ovaries” value [4] was 9 and the “Gross Pathology: Pale Pituitary” value [4] was 0. For the same compound, the “Gross Pathology: Pale SQ Skin” value [4] was 4, the “Injection Site Mononuclear Cell Infiltration” value [4] was 10 and the “Injection Site Mononuclear Cell Infiltration, Marked” value [4] was 2. For the same compound, the “Injection Site Mononuclear Cell Infiltration, Mild” value [4] was 1, the “Injection Site Mononuclear Cell Infiltration, Minimal” value [4] was 0 and the “Injection Site Mononuclear Cell Infiltration, Moderate” value [4] was 7. For the same compound, the “Liver Focal Necrosis” value [4] was 0, the “Liver Focal Necrosis, Minimal” value [4] was 0 and the “Liver Histiocytic Infiltration” value [4] was 9. The “Liver Histiocytic Infiltration, Mild” value [4] was 5, the “Liver Histiocytic Infiltration, Minimal” value [4] was 4 and the “Liver Histiocytic Infiltration, Moderate” value [4] was 0. The “Liver Vacuolation” value [4] was 10, the “Liver Vacuolation, Mild” value [4] was 10 and the “Liver Vacuolation, Minimal” value [4] was 0. The “Lymph Node, Man. Histiocytic Infiltration” value [4] was 9, the “Lymph Node, Man. Histiocytic Infiltration, Mild” value [4] was 1 and the “Lymph Node, Man. Histiocytic Infiltration, Minimal” value [4] was 7. For the same compound, the “Lymph Node, Man. Histiocytic Infiltration, Moderate” value [4] was 1, the “Lymph Node, Mes. Histiocytic Infiltration” value [4] was 9 and the “Lymph Node, Mes. Histiocytic Infiltration, Mild” value [4] was 4. The “Lymph Node, Mes. Histiocytic Infiltration, Minimal” value [4] was 5, the “Lymph Node, Mes. Histiocytic Infiltration, Moderate” value [4] was 0 and the “Ovary Histiocytic Infiltration” value [4] was 10. The “Ovary Histiocytic Infiltration, Mild” value [4] was 6, the “Ovary Histiocytic Infiltration, Minimal” value [4] was 0 and the “Ovary Histiocytic Infiltration, Moderate” value [4] was 4. The “Skin, Dermis Histiocytic Infiltration” value [4] was 2, the “Skin, Dermis Histiocytic Infiltration, Marked” value [4] was 0 and the “Skin, Dermis Histiocytic Infiltration, Mild” value [4] was 0. The “Skin, Dermis Histiocytic Infiltration, Moderate” value [4] was 2, the “Skin, SQ Histiocytic Infiltration” value [4] was 0 and the “Skin, SQ Histiocytic Infiltration, Mild” value [4] was 0.
